{
  "source": "patent US12409184B2",
  "about": "“Iloprost compositions and formulations thereof” (BTG INTERNATIONAL INC., priority 2020, dated 2025)",
  "key": {"[1]": {"system": "subjects with symptomatic Raynaud's Phenomenon (RP) secondary to Systemic Sclerosis (SSc)", "test": "Example 1 double-blind placebo-controlled study, ePRO diary efficacy on symptomatic RP attacks", "format": "in vivo, human", "details": "for Weekly Frequency of Symptomatic RP Attacks, Treatment comparison of change vs placebo, LS mean difference in change: ANCOVA, N = 17 per group, p 0.8498", "from_the_text": "This was a multicenter, double-blind, randomized, placebo-controlled study to provide an initial evaluation of the effect of iloprost on the symptomatic relief of RP attacks in subjects with SSc. As a pilot study, it was not powered to provide a definitive estimate of the effect of iloprost. Importantly, this study tested the feasibility of collecting the study endpoints and logistics of study operations that included, among other things, an electronic patient-reported outcomes (ePRO) diary for the evaluation of subject response to the treatment, as well as the infusion workflow for this multiday treatment. Subjects were allowed to continue receiving stable standard of care therapies for the management of symptomatic RP (e.g., calcium channel blockers, angiotensin-converting enzyme inhibitors, statins, fluoxetine, and low-dose acetylsalicylic acid) or may have participated without the use of background standard of care therapies.\nThe primary objective was to evaluate the efficacy of iloprost compared to placebo on the change in the weekly frequency of symptomatic Raynaud's Phenomenon (RP) attacks from baseline in subjects with symptomatic RP secondary to Systemic Sclerosis (SSc). The exploratory objectives were the following: • To evaluate the efficacy of iloprost compared to placebo on the severity of RP attack symptoms • To evaluate the efficacy of iloprost compared to placebo on the Raynaud's Condition Score • To evaluate the efficacy of iloprost compared to placebo on hand function as assessed by the Cochin Hand Function Scale (CHFS) • To evaluate the safety and tolerability of iloprost • To evaluate the efficacy of iloprost compared to placebo on symptomatic RP attack duration • To evaluate the efficacy of iloprost compared to placebo on the worst pain associated with symptomatic RP • To evaluate the efficacy of iloprost compared to placebo on the subject assessment of overall improvement in symptomatic RP • To evaluate the pharmacokinetics (PK) of iloprost in subjects with symptomatic RP secondary to SSc\nThe study consisted of an up to 30-day screening period during which subjects completed a daily ePRO diary to record information regarding all symptomatic RP attacks (e.g., severity of symptoms, duration, and hand function). […] The baseline ePRO diary completion period may have been extended beyond 10 days in order to accommodate the preferred Monday through Friday dosing schedule. The ePRO symptomatic RP attack data from this time period were used for the calculation of the baseline frequency of symptomatic RP attacks.\nSubjects were randomized in a 1:1 ratio to iloprost injection for IV use or placebo. Randomization was stratified based on the use of phosphodiesterase inhibitors at screening. Study drug administration began on Day 1, and subjects received study drug for 5 consecutive days (e.g., Monday through Friday) as an IV infusion over 6 hours each day via a peripheral line (NovaCath™ Integrated IV Catheter System) or a peripherally inserted central catheter using an infusion pump.\nOn Day 1, study drug was initiated at a starting dose of 0.5 ng/kg/min, and dose increases occurred every 30 minutes (+5 minutes) in increments of 0.5 ng/kg/min up to 2.0 ng/kg/min or the individual tolerated dose. If dose-limiting adverse events (e.g., headache, flushing, jaw pain, myalgia, nausea, or vomiting) occurred that could not be tolerated by the subject, or if the subject experienced symptomatic hypotension, then the dose was reduced in a step-wise manner by 0.5 ng/kg/min every 30 minutes (+5 minutes) until a tolerated dose was determined or the infusion was stopped until the symptoms resolved at which point the study drug was reinitiated at a previously tolerated dose. If symptomatic hypotension or a dose-limiting adverse event occurred during administration of iloprost at the starting dose (i.e., 0.5 ng/kg/min), the infusion was reduced to 0.25 ng/kg/min. […]"}, "[2]": {"test": "Example 1 PK sub-study, plasma iloprost by LC-MS", "format": "in vivo, human", "details": "for CLss, Mean (SD): n 1", "method": "Eligible subjects were given the option to participate in a PK sub-study. Subjects who participated in the sub-study provided plasma samples for PK analysis. The samples were analyzed for iloprost concentrations using validated liquid chromatography mass spectrometry methods.\nThe following PK parameters were calculated whenever possible, based on the plasma concentrations of iloprost: • Steady state plasma concentration just before infusion was stopped • Area under the plasma concentration versus time curve (AUC) from time of dosing to the last time point with measurable concentration (AUC0-last) • AUC from time 0 extrapolated to infinity (AUC0-inf) • Percentage of AUC obtained by extrapolation (AUCextrape %) • Terminal elimination constant (λz) • Plasma terminal elimination half-life (t½) • Plasma clearance (CL), calculated as dose/AUC0-inf • Volume of distribution (V), calculated as dose/(λz×AUC0-inf) Safety"}},
  "data": [
    {"smiles": "CC#CCC(C)[C@H](O)/C=C/[C@@H]1[C@H]2C/C(=C/CCCC(=O)O)C[C@H]2C[C@H]1O", "note": "(stereo partly drawn) [Iloprost, (5E)-5-[(3aS,4R,5R,6aS)-5-hydroxy-4-[(E,3S)-3-hydroxy-4-methyloct-1-en-6-ynyl]-3,3a,4,5,6,6a-hexahydro-1H-pentalen-2-ylidene]pentanoic acid]", "values": [
      {"measurement": "Average Overall Severity of Symptomatic RP Attacks, Baseline, Mean", "setting": "[1]; 11-point NRS (0 to 10), before treatment, N = 17", "result": 5.30},
      {"measurement": "Average Overall Severity of Symptomatic RP Attacks, Treatment comparison of change vs placebo, LS mean difference in change", "setting": "[1]; 11-point NRS, p 0.4409", "result": "−0.47"},
      {"measurement": "Weekly Frequency of Symptomatic RP Attacks, Treatment comparison of change vs placebo, LS mean difference in change", "setting": "[1]", "result": "−0.77"},
      {"measurement": "Weekly Frequency of Symptomatic RP Attacks, Treatment comparison of change vs placebo, LS mean difference in change", "setting": "[1]; listed as iloprost", "result": "not statistically significant"},
      {"measurement": "Exploratory endpoints (overall severity, Raynaud's Condition Score, weekly duration, worst symptoms, PGI-S and PGI-C): differences in the iloprost group compared to placebo", "setting": "[1]; baseline to double-blind endpoint", "result": "not statistically significant"},
      {"measurement": "Weekly Frequency of Symptomatic RP Attacks, Treatment comparison of change vs placebo, LS mean difference in change (treatment effect)", "setting": "[1]; subgroup Randomization Date After 3 Jun. 2019, p 0.7116", "result": 2.04},
      {"measurement": "CLss, Mean (SD)", "setting": "[2]; Maximum Tolerated Dose Level 1.00 ng/kg/min", "result": "91.22 (NA) L/h"},
      {"measurement": "CLss, Mean (SD)", "setting": "[2]; Maximum Tolerated Dose Level 1.50 ng/kg/min", "result": "6.01 (NA) L/h"},
      {"measurement": "Css, Geometric mean (geometric CV %)", "setting": "[2]; Maximum Tolerated Dose Level 1.50 ng/kg/min, n 2", "result": "32.90 (284.8) pg/mL"},
      {"measurement": "CLss, Mean (SD)", "setting": "[2]; Maximum Tolerated Dose Level 2.00 ng/kg/min", "result": "64.53 (NA) L/h"}
    ]}
  ]
}
